# Test results: article PMC8145572 (Viruses, 2021)
# Entries after “also recorded” stand apart in the source; their conditions may differ. Read-outs that look alike come from different tables or passages of the source.
# Key:
# [1] = system: DENV-infected SK-N-MC cells; test: WST-1 cell viability assay, DENV-infected SK-N-MC cells; format: cell-based, human; conditions: MOI 0.1, 3 days
# [2] = system: Dengue virus serotype 2 (DENV2), strain New Guinea C; test: Antiviral evaluation; format: cell-based; conditions: HFF-1 cells; for EC50: MOI 0.1, AUC of viral burden over 2 days; for viral burden in all treatment arms: all concentrations
# [3] = system: DENV-infected HFF-1 cells; test: WST-1 cell viability assay, DENV-infected HFF-1 cells; format: cell-based, human; conditions: MOI 1, 3 days
# [4] = system: Dengue virus serotype 2 (DENV2), strain New Guinea C; test: Antiviral evaluation; format: cell-based; conditions: for EC50: MOI 0.01, AUC of viral burden over 3 days
# [5] = system: HUH-7 cells; test: WST-1 cell proliferation assay, uninfected HUH-7 cells; conditions: uninfected HUH-7 cells; for cytotoxicity in uninfected cells: evaluated concentrations; for CC50: 72 h
# [6] = as above; conditions: human
# [7] = system: DENV-infected HUH-7 cells; test: WST-1 cell viability assay, DENV-infected HUH-7 cells; format: cell-based, human; conditions: MOI 0.01, 3 days
# [8] = system: SK-N-MC cells; test: WST-1 cell proliferation assay, uninfected SK-N-MC cells; conditions: uninfected SK-N-MC cells; for cytotoxicity in uninfected cells: evaluated concentrations; for CC50: 72 h
# [9] = as above; conditions: human
# [10] = system: Dengue virus serotype 2 (DENV2), strain New Guinea C; test: Antiviral evaluation; format: cell-based; conditions: SK-N-MC cells; for EC50: MOI 0.1, AUC of viral burden over 4 days
# [11] = system: HFF-1 cells; test: WST-1 cell proliferation assay, uninfected HFF-1 cells; conditions: uninfected HFF-1 cells; for cytotoxicity in uninfected cells: evaluated concentrations; for CC50: 72 h
# [12] = as above; conditions: human
# [13] = Phase I study, one-time dose of 1000 mg; cited from earlier work
# [14] = system: Dengue virus serotype 2 (DENV2), strain New Guinea C; test: Combination drug assay UV-4B and IFN, DENV-infected SK-N-MC cells, plaque assay; format: cell-based; conditions: 400 µM
# [15] = system: Dengue virus serotype 2 (DENV2), strain New Guinea C; test: Combination drug assay UV-4B and IFN, DENV-infected HUH-7 cells, plaque assay; format: cell-based; conditions: day 2, 25 µM
Compound,cell viability of infected cells [1],"EC50 ([2]; Dengue virus, DENV2, 48 h)",viral burden in all treatment arms [2],cell viability of infected cells [3],"EC50 ([4]; HUH-7 cells, read-out: EC50)",cytotoxicity in uninfected cells [5],CC50 at 72 h [6],cell viability of infected cells [7],cytotoxicity in uninfected cells [8],CC50 at 72 h [9],"EC50 ([10]; Dengue virus, DENV2, 96 h)",cytotoxicity in uninfected cells [11],CC50 at 72 h [12],CC50 [5],CC50 [8],CC50 [11],further results
"NC(=O)c1nc(F)c[nH]c1=O [FAV, favipiravir]",limited effect on cell health,> 500 µM,completely ineffective,limited effect on cell health,149 µM,no cytotoxicity,> 500 µM,limited effect on cell health,no cytotoxicity,> 500 µM,288 µM,no cytotoxicity,> 500 µM,–,–,–,"EC50 ([4]; Dengue virus, DENV2, Huh-7, 72 h, HUH-7 cells): 147 µM; decrease in titers relative to the control ([4]; HUH-7 cells, 250 µM): approximate tenfold decrease; maximum reduction in viral titers ([4]; HUH-7 cells, highest concentration evaluated): 1.2 log10 PFU/mL; lowering of viral titers ([10]; Day 2, 250 µM): approximately 0.6 log10 PFU/mL; total reduction of viral titers ([10]; Day 2, 500 µM): 1.3 log10 PFU/mL; additional decrease of viral titers over 250 µM ([10]; Day 2, 500 µM versus 250 µM): 0.7 log10 PFU/mL"
"CC(C)OC(=O)[C@H](C)N[P@](=O)(OC[C@H]1O[C@@H](n2ccc(=O)[nH]c2=O)[C@](C)(F)[C@@H]1O)Oc1ccccc1 [SOF, sofosbuvir]",minimal changes in cell viability,> 10 µM,comparable to the no treatment control,did not change relative to the uninfected control,–,no cytotoxicity,> 10 µM,yielded improvements in cell viability,no cytotoxicity,> 10 µM,> 10 µM,no cytotoxicity,> 10 µM,–,–,–,"EC50 ([4]; Dengue virus, DENV2, 72 h, HUH-7 cells, read-out: EC50): 6.96 µM; viral titers ([4]; HUH-7 cells, 10 µM): below the limit of detection; reduction in viral burden ([4]; HUH-7 cells, 4 and 6 µM): ~100 fold; viral burden in all treatment arms ([10]; all concentrations): comparable to the no treatment control"
COCCCCCCCCCN1C[C@H](O)[C@@H](O)[C@H](O)[C@H]1CO.Cl [UV-4B],concentrations ≥ 25 µM caused dramatic increases in cell viability,–,–,moderate declines in viability observed at 100 and 400 µM,23.8 µM,–,–,remained comparable to the infected control; also recorded: declines in cell viability observed at UV-4B concentrations of 100 and 400 µM,–,–,–,–,–,135 µM,> 400 µM,> 400 µM,"Cmax [13]: ~40 µM; decline in peak viral titers, monotherapy [14]: 3.8 log10 PFU/mL; EC50 [2]: 37.4 µM; reduction of viral titers, monotherapy [15]: 1.7 log10 PFU/mL; EC50 [10]: 49.4 µM; decrease in viral titers ([10]; day 2, 25 µM): 1.6 log10 PFU/mL; decrease in viral titers ([10]; day 2, 400 µM): 3.6 log10 PFU/mL"
interferon-alpha [IFN],–,–,–,Percent cell viability stayed constant,–,–,–,concentrations ≥ 10 IU/mL markedly increased cell viability,–,–,–,–,–,">10,000 IU/mL",1074 IU/mL,">10,000 IU/mL","reduction of peak titers ([4]; HUH-7 cells, 100 IU/mL): 2.4 log10 PFU/mL; effect on production of infectious virus ([4]; HUH-7 cells, 10,000 IU/mL): completely curbed the production of infectious virus"
